# Measurements taken from a melting point compilation (Tetko et al.; mined from patent text by program, amines drawn as free bases though some values may be those of a salt).
row,SMILES,melting point
1,CC(=O)OC1CCC2(C)C(CCC3=C4C(=O)CC(C(C)CCCC(F)(C(F)(F)F)C(F)(F)F)C4(C)CCC32)C1 (centres undefined),187 to 188 °C
2,COc1cc(N)ccc1OC[C@H](O)C1CC1,71 °C
3,c1ccc(N2CC3CCC(C2)O3)cc1,84 to 85 °C
4,Nc1c([N+](=O)[O-])cc(F)c(Cl)c1F,96 to 97 °C
5,Clc1ccccc1C=C(Cn1cncn1)C1(Cl)CC1,82 to 85 °C
6,CCc1noc(-c2cc3c4cc(N(C)C)ccc4n(CCCCl)c3cn2)n1,183 to 186 °C
7,NCC1COc2cc(F)cc(-c3ccccc3F)c2N1 (centres undefined),77 °C
8,CN(C)c1cccc(NC(=O)c2cccc(S(=O)(=O)N3CCCCCC3)c2)c1,178 to 180 °C
9,OCC1CC(n2c(Cl)nc3cc(Cl)c(Cl)cc32)C(O)C1O (centres undefined),206 to 210 °C
10,CCCN(C(=O)OCC(C)C)C1Cc2ccc(C3=NNC(=O)CC3)cc2C1 (centres undefined),161 to 162 °C
11,CCCCn1nc2c(N)nc3ncccc3c2c1CC(C)C,219 to 222 °C
12,O=C(NC(=O)c1c(F)cccc1F)Nc1cc(Cl)c(Cl)c(Cl)c1,231 to 232 °C
13,O=C(CCCCC(=O)Oc1cccc(O)c1O)Oc1cccc(O)c1O,110 to 111 °C
14,Cc1cn(-c2cc(NC(=O)c3ccc(Cl)c(C#Cc4cnc(NC5CC5)nc4)c3)cc(C(F)(F)F)c2)cn1,163 to 165 °C
15,COC(=O)NC1=NCC(c2ccccc2Br)CN1 (centres undefined),213 to 215 °C
16,CNc1cc(F)ccc1C(=O)Cc1nnnn1C,132 to 134 °C
17,COc1cc(F)c(C(O)C#N)cc1OC (centres undefined),112 to 114 °C
18,CN1CCN(C(=O)CN2CCN(C(=O)c3cc(C(F)(F)F)cc(C(F)(F)F)c3)[C@H](Cc3c[nH]c4ccccc34)C2)CC1,105 to 108 °C
19,O=C(O)c1ccc2c(c1)S(=O)(=O)c1cc(C(=O)O)ccc1O2,399 to 401 °C
20,O=C(c1ccccc1)c1c[nH]c(=O)[nH]1,329 to 330 °C
21,O=C1CCC(c2ccc3c(c2)C2(CC2)C(=O)N3)=NN1,256 to 257 °C
22,O=Cc1cc2cc3c(cc2nc1Cl)OCCO3,222 to 224 °C
23,COc1cc2c(cc1C)C1(CO2)C(=O)N(CC2CCCCO2)c2ccccc21 (centres undefined),180 to 182 °C
24,CCOC(=O)c1ccn2nccc2n1,114 to 115 °C

row,SMILES,melting point
1,CC(C)(C)OCCOc1cc(NC(=O)OC(C)(C)C)c([N+](=O)[O-])cc1I,113 to 116 °C
2,CN(C)CC1Cc2ccccc2N(S(C)(=O)=O)C1 (centres undefined),69 to 70 °C
3,CCOC(=O)c1nc2sc(CC)c([N+](=O)[O-])c2c(=O)[nH]1,200 to 212 °C
4,O=[N+]([O-])c1ccccc1N1CCN(c2ccccc2)CCN1,119 to 121 °C
5,O=C(O)CCCCN1C(=O)c2ccc([N+](=O)[O-])cc2C1=O,172 °C
6,O=c1ccc(C(F)(F)F)cn1Cc1ccccc1NCCCl,93.5 to 95 °C
7,N#Cc1nn(-c2c(Cl)cc(C(F)(F)F)cc2Cl)c(N)c1-c1ccoc1C(F)(F)F,155 to 157 °C
8,CCCCNC(=O)Oc1cccc(NC(=O)NC2CC2)c1,154 °C
9,CC(=O)O[C@H]1c2cc(F)ccc2Cc2ccccc2[C@H]1C[C@@H]1COC(C)(C)O1,147 to 149 °C
10,Cc1cn2cccc(C=Cc3ccccc3)c2n1,101 to 105 °C
11,CC(Oc1cccc(-c2ccc(Cl)c(C(=O)NCC34CC5CC(CC(C5)C3)C4)c2)c1)C(=O)O (centres undefined),115 to 120 °C
12,Cc1cc(Br)cnc1CCCCNC1=NS(=O)(=O)c2cc([N+](=O)[O-])ccc21,235 to 242 °C
13,CC(=O)C(=NNc1ccccc1)C(=O)N(C)C,131 to 133 °C
14,CN1CCOc2cc(O)ccc21,84 to 87 °C
15,CNC(=O)c1c(C)c([N+](=O)[O-])cc2nc(OC)c(OC)nc12,205 to 206 °C
16,c1ccc2c(c1)oc1nnccc12,120 to 122 °C
17,O=C(NCCCn1cncn1)c1ccc([N+](=O)[O-])o1,176 to 177 °C
18,CCOC(=O)Cc1cccc(N)c1,135 °C
19,CCCCCCCCCCCCCCc1ccc(OCC2COC(C)(C)O2)c(CC)c1 (centres undefined),34 to 38 °C
20,Cc1ccc(NCc2c(F)c(F)c(C(F)(F)F)c(F)c2F)cc1C(=O)O,84 °C
21,Nc1ccc(Cc2n[nH]c(=O)o2)cc1,267 to 268 °C
22,COC1(c2cc(F)cc(Sc3cnc4c(c3)OCC(=O)N4C)c2)CCOCC1,127 to 128 °C
23,CSC(SC)=C(C#N)C(=O)N(C)C,45 to 46 °C

# Other lines, results leading:
row,melting point,SMILES
1,108 to 109 °C,CC(C)(C)OC(=O)N(Cc1ccccc1)[C@H](COP(=O)(Oc1ccccc1)Oc1ccccc1)C(=O)O
2,157 to 159 °C,COC(=O)C(=O)Nc1ccc2c3c(n(CCCNC(=O)OC(C)(C)C)c(=O)c2c1)-c1ccccc1C3=O
3,228 to 230 °C,CC(=O)Nc1cnn2c1-c1ccccc1NC2(C)C
4,173 to 174 °C,CS(=O)(=O)c1ccc(-c2c(-c3ccccc3)sc3ccccc23)cc1
5,114 to 117 °C,CC(C)(C)OC(=O)N1c2ccccc2CC1c1ccccc1N (centres undefined)
6,139 to 141 °C,COc1cc(OCC(=O)N[C@H]2CCN(Cc3ccccc3)C2)ccc1C(=NN)C(=O)c1ccc(O)c(N)c1
7,150 to 153 °C,C[C@H](C(=O)N[C@H](CO)Cc1ccccc1)c1ccc(NS(C)(=O)=O)c(F)c1
8,92 to 94 °C,c1ccc(C(NCc2ccc(CNC(c3ccccc3)c3ccccc3)cc2)c2ccccc2)cc1
9,204 to 205 °C,CCCOc1ccccc1-c1nc2cc(NC)ccc2c(=O)[nH]1
10,135 to 136 °C,COc1ccc(COc2cccc(C(=O)Nc3ccc(S(C)=O)cc3)c2)cc1 (centres undefined)
11,239 to 241 °C,COc1ccc2c(c1)Sc1ccccc1C(=S)N2
12,152 °C,COc1cc(-c2nc3ccccc3n2Cc2ccccc2Br)cc(OC)c1OC
13,208 to 210 °C,CCCCCCCNC(=O)Nc1ccc(F)cc1C(=O)NC1CCN(C(c2ccccc2)c2ccccc2)CC1
14,284 to 286 °C,O=C1c2ccccc2C(=O)c2c1ccc(C(=O)O)c2[N+](=O)[O-]
15,141 to 142 °C,O=C(O)c1ccc(CCCc2ccc(Br)cc2OCc2ccccc2)cc1
16,202 to 204 °C,O=C(CC1=C(n2nc(-c3c(-c4ccccc4)nn4ccccc34)ccc2=O)CCCC1)N1CCOCC1
17,218 to 220 °C,COc1ccnc(CCc2nc3cc(-c4ccc(S(=O)(=O)NCCO)cc4)cnc3[nH]2)c1
18,89 to 90 °C,COc1ccc2c(c1)C(=O)c1cccc(OC(C)C)c1-2
19,112 to 113 °C,COc1ccc(-c2nc(COCCc3cccc(NS(=O)(=O)C(F)(F)F)c3)cs2)cc1
20,273 to 275 °C,CS(=O)(=O)c1ccc(-c2c(-c3ccccc3)[nH]c3ccc(Cl)cc23)cc1
21,59 to 60 °C,CCOC(=O)CC(=O)c1ccc(OCc2ccccc2)cc1C
22,38 to 40 °C,CCOC(=O)COC(=O)Cc1ccc2cc(OC)ccc2c1
23,170 to 172 °C,C1=C(OCc2ccccc2)CCN(Cc2nc3ccccc3[nH]2)C1
24,151 to 152 °C,CCCCC(Cc1ccc(OCCCNC(=O)c2ccc(-c3ccccn3)cc2)cc1)C(=O)O (centres undefined)
25,148 to 150 °C,C=CCOn1c(=O)c2cc(F)c(N3CCCC3)cc2n(Cc2ccccc2)c1=O
26,96 to 97 °C,CCOC(=O)c1cn(Cc2ccc(Oc3ccccc3)cc2)nc1OCc1nc(-c2ccccc2)oc1C

row,melting point,SMILES
1,236 to 238 °C,CC(O)CN(C)c1nnc2c3ccc(Cl)cc3c(-c3ccccc3)nn12 (centres undefined)
2,110 °C,O=C(c1cc(-c2ccc(Cl)cc2)c(N2CCOCC2)s1)c1ccc(Cl)cc1Cl
3,202 to 204 °C,Cc1nc2c(N)nc3ccc(OCc4ccccc4)cc3c2n1CCCCNC(=O)Nc1ccccc1
4,215 to 217 °C,O=C(O)c1cnc2n(c1=O)CCc1ccccc1-2
5,257 to 263 °C,O=C(O)CN1C(=O)C(=Cc2ccc(OCc3ccc(C(F)(F)F)cc3)c(OCc3ccccc3)c2)SC1=S
6,97 to 100 °C,CC(=O)NC(Cc1ccccc1)C(=O)OCc1cc(C)cc(C)c1 (centres undefined)
7,107 to 110 °C,O[C@@H](CNCCOc1ccc2cc(-c3ccon3)oc2c1)COc1ccccc1
8,168 to 171 °C,O=c1c(-c2ccccc2)c(Cn2ccnc2)oc2ccccc12
9,159 to 161 °C,O=C(O)Cn1c(Cc2ccccc2)ccc(NC(=O)CCCc2ccccc2)c1=O
10,127 to 128 °C,NC(=O)c1cccc(Oc2ccccc2)c1
11,122 to 125 °C,Cn1ncc(-c2ccnc(Cl)n2)c1-c1ccc(Cl)cc1Cl
12,94 to 95 °C,c1csc(-c2noc(COc3ccc(CCCCn4ccnc4)cc3)n2)c1
13,227 to 229 °C,CCCc1cc(-c2noc3cc(O)ccc23)ccc1O
14,169 to 170 °C,CCC(=O)NCCc1c(-c2ccccc2)nn2ccc3c(c12)CCO3
15,186 °C,CN(C)c1ccc(C(=O)c2ccccc2)cc1NC(=O)c1ccn2c1CSC2c1cccnc1 (centres undefined)
16,210 to 211 °C,CCSc1nc2cccc(C(=O)OC)c2n1Cc1ccc(-c2ccccc2-c2nc(=O)o[nH]2)cc1
17,144 to 148 °C,CN1CCN(CCCNc2ncc3cc(-c4c(Cl)cccc4Cl)c(NC(=O)NCc4ccccc4)nc3n2)CC1
18,115 to 117 °C,COc1cccc(Nc2nccc(-c3sc(N)nc3-c3ccccc3)n2)c1
19,123 to 124 °C,CCCc1c(OCCCOc2ccc(Sc3ccccc3CC(=O)O)cc2)ccc(C(C)=O)c1O
20,172 to 174 °C,Cc1noc(NS(=O)(=O)c2ccc(-c3ccc4c(c3)OCO4)cc2)c1Br
21,226 °C,CCCc1noc(-c2ccc(N3CCN(C(=O)c4ccccc4C(F)(F)F)CC3)nn2)n1
22,127 to 129 °C,CS(=O)(=O)NCc1ccc(-n2c(-c3cccnc3N)nc3cc(-c4cccnc4)cnc32)cc1
23,166 to 167 °C,CCOC(=O)c1c(Cn2cncn2)nc2sc3ccncc3c2c1-c1ccc(OC)c(OC)c1
24,123 to 124 °C,CSc1cc(C)nc(SC)c1NC(=O)CCCCCCCCSc1nc2ccccc2o1
25,201 to 203 °C,CC(=O)NCc1ccc2oc([N+](=O)[O-])c(-c3ccccc3)c2c1
26,91.3 to 91.8 °C,COc1ccc(C=CC(=O)c2ccccc2Br)c(OC)c1
